According to patent US8394952B2 (Vertex Pharmaceuticals Incorporated, priority 2006, dated 2013):

Tests used:
Plk1 [1] = target: T1, Plk1 (Homo sapiens, UniProt P53350); test: Plk1 inhibition assay (radioactive-phosphate incorporation); conditions: for solubility under the Plk1 assay conditions: Plk1 radioactive incorporation assay conditions; for activity in the Plk1 radioactive incorporation assay (in words): test compound typically starting from 10 μM
Plk1 [2] = target: T1, Plk1; test: biochemical

T1 sequence (P53350 20-338): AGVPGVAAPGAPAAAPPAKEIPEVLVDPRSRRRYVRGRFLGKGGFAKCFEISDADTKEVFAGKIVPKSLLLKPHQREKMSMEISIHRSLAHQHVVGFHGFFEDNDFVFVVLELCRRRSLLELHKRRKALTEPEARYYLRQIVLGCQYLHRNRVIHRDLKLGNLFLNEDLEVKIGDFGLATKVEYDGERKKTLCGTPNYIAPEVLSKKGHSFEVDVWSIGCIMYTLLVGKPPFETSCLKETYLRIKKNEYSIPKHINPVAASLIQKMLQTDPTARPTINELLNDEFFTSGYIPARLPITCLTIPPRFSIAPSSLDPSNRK

Row | solubility under the Plk1 assay conditions (Plk1 [1]) | Ki (Plk1 [2]) [nM] | SMILES | activity in the Plk1 radioactive incorporation assay (in words) (Plk1 [1])
1 | not soluble under the assay conditions | – | CNC(=O)c1ccc(Nc2ncc3c(n2)N(C2CCCC2)CC(C)(C)C(=O)N3C)nc1 [Compound I-126, 6-(9-cyclopentyl-6,7,8,9-tetrahydro-5,7,7-trimethyl-6-oxo-5H-pyrimido[4,5-b][1,4]diazepin-2-ylamino)-N-methylpyridine-3-carboxamide] | –
2 | not soluble under the assay conditions | – | CNC(=O)c1ccc(Nc2ncc3c(n2)N(C2CCCC2)CC(C)(C)C(=O)N3C)c(OC(F)(F)F)c1 [Compound I-142, 4-(9-Cyclopentyl-6,7,8,9-tetrahydro-5,7,7-trimethyl-6-oxo-5H-pyrimido[4,5-b][1,4]diazepin-2-ylamino)-N-methyl-3-(trifluoromethoxy)benzamide] | –

Continued, compound first:

Row | SMILES | solubility under the Plk1 assay conditions (Plk1 [1]) | Ki (Plk1 [2]) [nM] | activity in the Plk1 radioactive incorporation assay (in words) (Plk1 [1])
3 | CCOC(=O)N1CCC(Nc2ncc3c(n2)N(C2CCCC2)CCC(=O)N3C)CC1 [Compound I-13, Ethyl 4-(9-cyclopentyl-6,7,8,9-tetrahydro-5-methyl-6-oxo-5H-pyrimido[4,5-b][1,4]diazepin-2-ylamino)piperidin-1-carboxylate] | – | – | not active within the limits of the assay
4 | COc1cc(C(=O)O)ccc1Oc1ncc2c(n1)N(C1CCCC1)CC(C)(C)C(=O)N2C [Compound I-107, 4-(9-cyclopentyl-6,7,8,9-tetrahydro-5,7,7-trimethyl-6-oxo-5H-pyrimido[4,5-b][1,4]diazepin-2-yloxy)-3-methoxybenzoic acid] | – | – | not active within the limits of the assay
5 | CNC(=O)c1ccc(Nc2ncc3c(n2)N(C2CCCC2)CCC(=O)N3C)c(OC)c1 [Compound I-9, 4-(9-cyclopentyl-6,7,8,9-tetrahydro-5-methyl-6-oxo-5H-pyrimido[4,5-b][1,4]diazepin-2-ylamino)-3-methoxy-N-methylbenzamide] | – | < 10 | –
6 | COc1cc(C(=O)N[C@H]2CCN(C(C)C)C2)ccc1Nc1ncc2c(n1)N(C1CCCC1)CC(C)(C)C(=O)N2C [Compound I-73, 4-(9-cyclopentyl-6,7,8,9-tetrahydro-5,7,7-trimethyl-6-oxo-5H-pyrimido[4,5-b][1,4]diazepin-2-ylamino)-N—((S)-1-isoipropylpyrrolidin-3-yl)-3-methoxybenzamide] | – | < 10 | –
